Experimental data reported in ChEMBL document CHEMBL2440076, “New triarylpyrazoles as broad-spectrum anticancer agents: design, synthesis, and biological evaluation” (Eur J Med Chem, 2013).

Experiments:
Format in all cases: functional
786-0 = test: Growth inhibition of human 786-0 cells assessed as cell growth at 5X10'-6 M after 48 hrs by sulforhodamine B assay; conditions: 786-0, 48 h, read-out: Activity
COLO 205 [1] = test: Growth inhibition of human COLO205 cells assessed as cell growth at 5X10'-9 M after 48 hrs by sulforhodamine B assay; conditions: COLO 205, 48 h, read-out: Activity
KM12 = test: Growth inhibition of human KM12 cells assessed as cell growth at 5X10'-9 M after 48 hrs by sulforhodamine B assay; conditions: KM12, 48 h, read-out: Activity
NCI-H226 = test: Growth inhibition of human NCI-H226 cells assessed as cell growth at 5X10'-8 M after 48 hrs by sulforhodamine B assay; conditions: NCI-H226, 48 h, read-out: Activity
SK-MEL-28 = test: Growth inhibition of human SK-MEL-28 cells assessed as cell growth at 5X10'-8 M after 48 hrs by sulforhodamine B assay; conditions: SK-MEL-28, 48 h, read-out: Activity
RXF 393 = test: Growth inhibition of human RXF393 cells assessed as cell growth at 5X10'-7 M after 48 hrs by sulforhodamine B assay; conditions: RXF 393, 48 h, read-out: Activity
SK-OV-3 [2] = test: Growth inhibition of human SKOV3 cells assessed as cell growth at 5X10'-5 M after 48 hrs by sulforhodamine B assay; conditions: SK-OV-3, 48 h, read-out: Activity
OVCAR-4 = test: Growth inhibition of human OVCAR4 cells assessed as cell growth at 5X10'-5 M after 48 hrs by sulforhodamine B assay; conditions: OVCAR-4, 48 h, read-out: Activity
T47D [3] = test: Growth inhibition of human T47D cells assessed as cell growth at 5X10'-6 M after 48 hrs by sulforhodamine B assay; conditions: read-out: Activity
SR = test: Growth inhibition of human SR cells assessed as cell growth at 5X10'-5 M after 48 hrs by sulforhodamine B assay; conditions: read-out: Activity
Malme-3M = test: Growth inhibition of human MALME-3M cells assessed as cell growth at 5X10'-8 M after 48 hrs by sulforhodamine B assay; conditions: read-out: Activity
COLO 205 [4] = test: Growth inhibition of human COLO205 cells assessed as cell growth at 5X10'-5 M after 48 hrs by sulforhodamine B assay; conditions: COLO 205, 48 h, read-out: Activity
M14 [5] = test: Growth inhibition of human M14 cells assessed as cell growth at 5X10'-9 M after 48 hrs by sulforhodamine B assay; conditions: M14, 48 h, read-out: Activity
M14 [6] = test: Growth inhibition of human M14 cells assessed as cell growth at 5X10'-7 M after 48 hrs by sulforhodamine B assay; conditions: M14, 48 h, read-out: Activity
LOX IMVI = test: Growth inhibition of human LOXIMVI cells assessed as cell growth at 5X10'-5 M after 48 hrs by sulforhodamine B assay; conditions: read-out: Activity
COLO 205 [7] = test: Growth inhibition of human COLO205 cells assessed as cell growth at 5X10'-7 M after 48 hrs by sulforhodamine B assay; conditions: COLO 205, 48 h, read-out: Activity
SK-MEL-5 = test: Growth inhibition of human SK-MEL-5 cells assessed as cell growth at 5X10'-7 M after 48 hrs by sulforhodamine B assay; conditions: SK-MEL-5, 48 h, read-out: Activity
NCI-H522 [8] = test: Growth inhibition of human NCI-H522 cells assessed as cell growth at 5X10'-7 M after 48 hrs by sulforhodamine B assay; conditions: NCI-H522, 48 h, read-out: Activity
IGROV-1 [9] = test: Growth inhibition of human IGROV1 cells assessed as cell growth at 5X10'-5 M after 48 hrs by sulforhodamine B assay; conditions: IGROV-1, 48 h, read-out: Activity
SK-OV-3 [10] = test: Growth inhibition of human SKOV3 cells assessed as cell growth at 5X10'-9 M after 48 hrs by sulforhodamine B assay; conditions: SK-OV-3, 48 h, read-out: Activity
T47D [11] = test: Growth inhibition of human T47D cells assessed as cell growth at 5X10'-5 M after 48 hrs by sulforhodamine B assay; conditions: read-out: Activity
SF-268 = test: Growth inhibition of human SF268 cells assessed as cell growth at 5X10'-5 M after 48 hrs by sulforhodamine B assay; conditions: SF-268, 48 h, read-out: Activity
NCI-H522 [12] = test: Growth inhibition of human NCI-H522 cells assessed as cell growth at 5X10'-9 M after 48 hrs by sulforhodamine B assay; conditions: NCI-H522, 48 h, read-out: Activity
MDA-MB-231 = test: Growth inhibition of human MDA-MB-231 cells assessed as cell growth at 5X10'-5 M after 48 hrs by sulforhodamine B assay; conditions: MDA-MB-231, 48 h, read-out: Activity
ACHN [13] = test: Growth inhibition of human ACHN cells assessed as cell growth at 5X10'-8 M after 48 hrs by sulforhodamine B assay; conditions: read-out: Activity
A549 = test: Growth inhibition of human A549/ATCC cells assessed as cell growth at 5X10'-6 M after 48 hrs by sulforhodamine B assay; conditions: A549, 48 h, read-out: Activity
PC-3 = test: Growth inhibition of human PC3 cells assessed as cell growth at 5X10'-9 M after 48 hrs by sulforhodamine B assay; conditions: PC-3, 48 h, read-out: Activity
IGROV-1 [14] = test: Growth inhibition of human IGROV1 cells assessed as cell growth at 5X10'-8 M after 48 hrs by sulforhodamine B assay; conditions: IGROV-1, 48 h, read-out: Activity
U-251 = test: Growth inhibition of human U251 cells assessed as cell growth at 5X10'-7 M after 48 hrs by sulforhodamine B assay; conditions: U-251, 48 h, read-out: Activity
SNB-19 = test: Growth inhibition of human SNB19 cells assessed as cell growth at 5X10'-6 M after 48 hrs by sulforhodamine B assay; conditions: SNB-19, 48 h, read-out: Activity
RPMI-8226 = test: Growth inhibition of human RPMI8226 cells assessed as cell growth at 5X10'-6 M after 48 hrs by sulforhodamine B assay; conditions: RPMI-8226, 48 h, read-out: Activity
MDA-MB-468 [15] = test: Growth inhibition of human MDA-MB-468 cells assessed as cell growth at 5X10'-7 M after 48 hrs by sulforhodamine B assay; conditions: MDA-MB-468, 48 h, read-out: Activity
K562 = test: Growth inhibition of human K562 cells assessed as cell growth at 5X10'-7 M after 48 hrs by sulforhodamine B assay; conditions: K562, 48 h, read-out: Activity
MOLT-4 = test: Growth inhibition of human MOLT4 cells assessed as cell growth at 5X10'-7 M after 48 hrs by sulforhodamine B assay; conditions: MOLT-4, 48 h, read-out: Activity
MDA-MB-468 [16] = test: Growth inhibition of human MDA-MB-468 cells assessed as cell growth at 5X10'-9 M after 48 hrs by sulforhodamine B assay; conditions: MDA-MB-468, 48 h, read-out: Activity
ACHN [17] = test: Growth inhibition of human ACHN cells assessed as cell growth at 5X10'-7 M after 48 hrs by sulforhodamine B assay; conditions: read-out: Activity
[18] = Growth inhibition of human HCC2998 cells assessed as cell growth at 5X10'-8 M after 48 hrs by sulforhodamine B assay; conditions: HCC 2998, 48 h, read-out: Activity

COc1cc(-c2nn(-c3cccc(NC(=O)Nc4cccc(C(F)(F)F)c4)c3)cc2-c2ccncc2)ccc1Cl
growth at 5 µM (786-0): -9%
growth at 0.005 µM (COLO 205 [1]): 98%
growth at 0.005 µM (KM12): 104%
growth at 0.05 µM (NCI-H226): 96%
growth at 0.05 µM (SK-MEL-28): 100%
growth at 0.5 µM (RXF 393): 74%
growth at 50 µM (SK-OV-3 [2]): 2%
growth at 50 µM (OVCAR-4): -3%
growth at 5 µM (T47D [3]): 18%
growth at 50 µM (SR): -16%
growth at 0.05 µM (Malme-3M): 87%
growth at 50 µM (COLO 205 [4]): -89%
growth at 0.005 µM (M14 [5]): 96%
growth at 0.5 µM (M14 [6]): 73%
growth at 50 µM (LOX IMVI): -86%
growth at 0.5 µM (COLO 205 [7]): 93%
growth at 0.5 µM (SK-MEL-5): 78%
growth at 0.5 µM (NCI-H522 [8]): 65%
growth at 50 µM (IGROV-1 [9]): -43%
growth at 0.005 µM (SK-OV-3 [10]): 100%
growth at 50 µM (T47D [11]): 1%
growth at 50 µM (SF-268): -34%
growth at 0.005 µM (NCI-H522 [12]): 95%
growth at 50 µM (MDA-MB-231): -56%
growth at 0.05 µM (ACHN [13]): 97%
growth at 5 µM (A549): 3%
growth at 0.005 µM (PC-3): 92%
growth at 0.05 µM (IGROV-1 [14]): 96%
growth at 0.5 µM (U-251): 67%
growth at 5 µM (SNB-19): -8%
growth at 5 µM (RPMI-8226): -10%
growth at 0.5 µM (MDA-MB-468 [15]): 57%
growth at 0.5 µM (K562): 53%
growth at 0.5 µM (MOLT-4): 74%
growth at 0.005 µM (MDA-MB-468 [16]): 93%
growth at 0.5 µM (ACHN [17]): 58%
growth at 0.05 µM [18]: 98%
